Consider three compounds from patent US6469033B1, “Use of 1-hydroxy-2-pyridones for the treatment of skin diseases” (Aventis Pharma Deutschland GmbH, priority 1996, dated 2002).

Converted amounts (≈) assume the structure as drawn. Where two headings read alike, the source gives them in different places.

The subject of one assay is Strept. faecalis. Briefly: Agar dilution MIC, aerobic bacteria (Mueller-Hinton agar). The class given is cell-based. The settings on record: 3 strains, number in brackets = strains with that MIC, 24 hours at 37° C. How it is done: (§1) Determination of the antibacterial activity of 1-hydroxy-4-methyl-6-cyclohexyl-2(1H)pyridone to skin-pathogenic gram-positive and gram-negative aerobic bacteria.
(§2) The minimal inhibitory concentration (MIC) was determined in an agar dilution test in Mueller-Hinton agar. The active compound was first dissolved in dimethyl sulfoxide at 10% strength and then diluted to twice the amount in each case in equal stages with agar so that in the end effect concentrations between 128 μg/ml and 1 μg/ml were obtained. Overnight cultures of the bacterial strains to be tested were diluted with liquid medium and employed as inoculum. The bacterial suspensions (1×10^5 cfu/ml) were applied to the surface of the active compound-containing agar plates. With the exception of the methicillin-resistant strains of Staphylococcus aureus (MRSA) and Staphylococcus epidermidis (MRSE), the MIC values were read off after 24 hours at 37° C.(MRSA and MRSE: 48 hours at 30° C.).
(§3) The lowest concentration at which growth was no longer to be observed was designated as the MIC.
(§4) Using known methods, the antibiotic-resistant bacteria investigated can be isolated from patients or from hospitals in which antibiotic resistance has been found. The other bacterial species mentioned can be isolated easily by a person skilled in the art on account of their species and generic name or ordered from a strain collection.
Background: In agar dilution the substance is mixed into plates at graded concentrations.

Another assay relates to Enterobacter cloacae. Described as above. In kind it is cell-based. The following applies: 1 strain, 24 hours at 37° C. On the procedure: as §1, §2, §3, §4
For a further assay, the system named is Pseudomonas aeruginosa. Described as above. In kind it is cell-based. The following applies: 5 strains, 24 hours at 37° C. How it is done:
as §1, §2, §3, §4

The test system of a further assay is Staphylococcus aureus. The assay is described as above. The class given is cell-based. The settings on record: 20 strains, read after 24 hours at 37° C. On the procedure: as §1, §2, §3, §4
The subject of assay [1] is S. epidermidis, ofloxacin-resistant, OFX^r. Described as above. The class given is cell-based. The settings on record: Staphylococcus epidermidis; 4 strains; 24 hours at 37° C. How it is done: as §1, §2, §3, §4
The subject of the next assay is Streptococcus pyogenes. Described as above. The class given is cell-based. The following applies: 20 strains, 24 hours at 37° C. On the procedure:
as §1, §2, §3, §4

Assay [2] concerns S. aureus, methicillin-resistant MRSA. Described as above. In kind it is cell-based. The following applies: Staphylococcus aureus, 19 strains, read after 48 hours at 30° C. On the procedure: as §1, §2, §3, §4
A further assay concerns Proteus vulgaris. Described as above. In kind it is cell-based. The settings on record: 3 strains, number in brackets = strains with that MIC, 24 hours at 37° C. How it is done: as §1, §2, §3, §4
The test system of the next assay is Escherichia coli. The assay is described as above. The following applies: 3 strains, 24 hours at 37° C. The class given is cell-based. How it is done: as §1, §2, §3, §4
For assay [3], the system named is Staphylococcus epidermidis. The description is as above. The class given is cell-based. The settings on record: 20 strains, 24 hours at 37° C. On the procedure:
as §1, §2, §3, §4

Assay [4] relates to Strept. faecium, vancomycin-resistant, VAN^r. The assay is described as above. The class given is cell-based. The following applies: Enterococcus faecium; 1 strain; 24 hours at 37° C. On the procedure: as §1, §2, §3, §4
For the next assay, the system named is Strept. agalactiae. The assay is described as above. In kind it is cell-based. The following applies: Streptococcus agalactiae; 9 strains; 24 hours at 37° C. On the procedure: as §1, §2, §3, §4
Another assay concerns Strept. faecium. The description is as above. The settings on record: Enterococcus faecium; 1 strain; 24 hours at 37° C. In kind it is cell-based. How it is done:
as §1, §2, §3, §4

The subject of assay [5] is S. epidermidis, methicillin-resistant, MRSE. The description is as above. In kind it is cell-based. The following applies: Staphylococcus epidermidis, 2 strains, 48 hours at 30° C. How it is done:
as §1, §2, §3, §4

In the next assay the test system is Strept. equisimilis. Described as above. The class given is cell-based. The following applies: Streptococcus dysgalactiae; 1 strain; 24 hours at 37° C. How it is done: as §1, §2, §3, §4
The subject of another assay is Enterobacter aerogenes. The assay is described as above. The class given is cell-based. The following applies: Klebsiella aerogenes; 1 strain; 24 hours at 37° C. How it is done: as §1, §2, §3, §4
Another assay relates to Strept. durans. The assay is described as above. The class given is cell-based. The settings on record: Enterococcus durans, 24 h, 10 strains; number in brackets = strains with that MIC; 24 hours at 37° C. On the procedure:
as §1, §2, §3, §4

In a further assay the test system is Klebsiella pneumoniae. Described as above. The class given is cell-based. The following applies: 2 strains, number in brackets = strains with that MIC, 24 hours at 37° C. How it is done: as §1, §2, §3, §4
Assay [6] concerns S. aureus, ofloxacin-resistant, OFX^r. The assay is described as above. In kind it is cell-based, Staphylococcus aureus. The settings on record: 16 strains, number in brackets = strains with that MIC, 24 hours at 37° C. How it is done:
as §1, §2, §3, §4

The subject of a further assay is Propionibacterium acnes. Put plainly: Agar dilution MIC, anaerobic bacteria (Wilkins-Chalgren agar). The class given is cell-based. How it is done:
as §3
In vitro activity of 1-hydroxy-4-methyl-6-cyclohexyl-2(1H)pyridone against anaerobic bacteria (the testing was carried out in an agar dilution test using Wilkins-Chalgren agar (Oxoid).

Another assay concerns Propionibacteria. The following applies: acne patients pretreated with antibiotics; cited from earlier work.
The subject of assay [7] is Staphylococcus epidermidis. The following applies: acne patients pretreated with antibiotics; cited from earlier work.
For another assay, the system named is enterococci. The settings on record: isolates from various centers; cited from earlier work.

What is called MIC is the least concentration at which growth counts as inhibited. With `Cc1cc(C2CCCCC2)n(O)c(=O)c1` [1-hydroxy-4-methyl-6-cyclohexyl-2(1H)pyridone], the MIC in the assay with Strept. faecalis was determined as 128 µg/mL (≈ 618 µM); in the assay with Strept. faecalis (Enterococcus faecalis, 24 h, read-out: MIC), 64 µg/mL (≈ 309 µM); in the assay on Enterobacter cloacae it was 128 µg/mL (≈ 618 µM); against Pseudomonas aeruginosa it was 128 µg/mL (≈ 618 µM); with Staphylococcus aureus, 64 µg/mL (≈ 309 µM); in assay [1], 64 µg/mL (≈ 309 µM). The MIC with Streptococcus pyogenes amounted to 64 µg/mL (≈ 309 µM); in [2] it was 64 µg/mL (≈ 309 µM); in the assay on Proteus vulgaris, 64 µg/mL (≈ 309 µM); with Proteus vulgaris (Proteus vulgaris, 24 h, read-out: MIC) it was 32 µg/mL (≈ 154 µM); in the assay with Escherichia coli it was 64 µg/mL (≈ 309 µM); in assay [3], 128 µg/mL (≈ 618 µM). Also, the MIC was 32 µg/mL (≈ 154 µM) in assay [4]; 128 µg/mL (≈ 618 µM) against Strept. agalactiae; 128 µg/mL (≈ 618 µM) against Strept. faecium; 64 µg/mL (≈ 309 µM) in assay [5]; 128 µg/mL (≈ 618 µM) against Strept. equisimilis; 128 µg/mL (≈ 618 µM) with Enterobacter aerogenes. Also, the MIC against Strept. durans was 64 µg/mL (≈ 309 µM); in the assay with Klebsiella pneumoniae it was 128 µg/mL (≈ 618 µM); in the assay with Klebsiella pneumoniae (Klebsiella pneumoniae, 24 h, read-out: MIC), 64 µg/mL (≈ 309 µM); in assay [6], 128 µg/mL (≈ 618 µM); in assay [6] (Staphylococcus aureus, 24 h, read-out: MIC), 64 µg/mL (≈ 309 µM); with Propionibacterium acnes (Cutibacterium acnes, DSM20458, Strain DSM 20458, read-out: MIC) it was 32 µg/mL (≈ 154 µM). Besides, the MIC was 32 µg/mL (≈ 154 µM) in the assay with Propionibacterium acnes (Cutibacterium acnes, Strain 6919, read-out: MIC); 32.0 µg/mL (≈ 154 µM) against Propionibacterium acnes (Strain 6922); 32.0 µg/mL (≈ 154 µM) against Propionibacterium acnes (Strain 15549).

As for `CC[C@H]1OC(=O)[C@H](C)[C@@H](O[C@H]2C[C@@](C)(OC)[C@@H](O)[C@H](C)O2)[C@H](C)[C@@H](O[C@@H]2O[C@H](C)C[C@H](N(C)C)[C@H]2O)[C@](C)(O)C[C@@H](C)C(=O)[C@H](C)[C@@H](O)[C@]1(C)O` [erythromycin], the “resistances found, share of the cases” value is 36% with Propionibacteria and 90% in assay [7].

Consider gentamycin, for which the “resistances, share of isolates” value in the assay on enterococci is “up to 50%”.
